10 compounds from patent US9145411B2, “Substituted amino-pyrimidine derivatives” (Asana Biosciences, LLC, priority 2012, dated 2015) can be followed below.

The target of one test is T1, PI3Kα (wild-type) (Homo sapiens, UniProt P42336).
T1 construct: made in house; host or cells: SF9 insect cells
The experiment in a line: PI3 Kinase TR-FRET assay, PI3Kα (wild-type). The test is classed as biochemical. Conditions: wild-type P110/P85α, 10 μM ATP. The essentials:
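Sf9-expressed, Ni-purified p110/p85α (5 ng) with PIP2 was preincubated with compound for 60 min at room temperature in buffer with 40 mM MgCl2 and 5 mM DTT. The reaction ran 30 min at room temperature with 10 μM PIP2 and 10 μM ATP. The TR-FRET 665/615 nm ratio was used to derive IC50 from dose-response curves.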
(In general: Time-resolved FRET reads energy transfer from a long-lived donor to a nearby acceptor.)

The target of the next test is T2, mTOR kinase (Homo sapiens, UniProt P42345).
T2 construct: purchased Millipore, USA
T2 sequence (P42345 1362-2549 limits assumed): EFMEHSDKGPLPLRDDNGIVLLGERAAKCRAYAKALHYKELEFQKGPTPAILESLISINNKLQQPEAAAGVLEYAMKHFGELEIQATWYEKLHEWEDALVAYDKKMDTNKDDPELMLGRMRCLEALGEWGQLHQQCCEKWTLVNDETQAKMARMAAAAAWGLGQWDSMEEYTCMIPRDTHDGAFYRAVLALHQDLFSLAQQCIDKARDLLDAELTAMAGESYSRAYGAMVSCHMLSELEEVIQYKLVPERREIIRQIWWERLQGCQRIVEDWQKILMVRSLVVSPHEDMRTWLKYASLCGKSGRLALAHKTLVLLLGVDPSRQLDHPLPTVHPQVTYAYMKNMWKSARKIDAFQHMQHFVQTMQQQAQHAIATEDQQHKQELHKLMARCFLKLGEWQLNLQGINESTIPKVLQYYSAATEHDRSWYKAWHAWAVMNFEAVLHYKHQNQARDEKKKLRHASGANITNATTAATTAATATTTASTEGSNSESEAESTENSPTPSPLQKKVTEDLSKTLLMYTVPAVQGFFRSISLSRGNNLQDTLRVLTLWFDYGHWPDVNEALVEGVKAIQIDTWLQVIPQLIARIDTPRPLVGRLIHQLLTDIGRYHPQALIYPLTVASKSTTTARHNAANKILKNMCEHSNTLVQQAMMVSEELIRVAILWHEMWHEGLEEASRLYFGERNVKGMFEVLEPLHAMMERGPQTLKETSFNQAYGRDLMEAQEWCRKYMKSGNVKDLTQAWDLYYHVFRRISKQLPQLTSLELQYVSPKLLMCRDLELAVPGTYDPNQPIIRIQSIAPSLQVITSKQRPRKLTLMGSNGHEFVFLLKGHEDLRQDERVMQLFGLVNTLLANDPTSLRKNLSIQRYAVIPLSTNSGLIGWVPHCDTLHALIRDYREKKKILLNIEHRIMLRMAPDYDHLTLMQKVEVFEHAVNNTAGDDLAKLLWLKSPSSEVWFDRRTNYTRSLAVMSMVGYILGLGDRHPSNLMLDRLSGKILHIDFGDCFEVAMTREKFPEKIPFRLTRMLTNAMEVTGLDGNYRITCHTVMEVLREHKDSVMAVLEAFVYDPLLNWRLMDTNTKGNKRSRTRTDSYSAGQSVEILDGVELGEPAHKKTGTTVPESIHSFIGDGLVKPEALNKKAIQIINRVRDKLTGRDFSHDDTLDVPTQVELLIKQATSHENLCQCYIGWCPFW
The experiment in a line: mTOR kinase TR-FRET assay. The class given is biochemical. Conditions: 20 μM ATP. The essentials:
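Test compounds were pre-incubated 60 min with mTOR (5 ng), then ULight-p70 S6K (Thr389) peptide (50 nM) and ATP (20 μM) were added in HEPES 50 mM pH 7.5, EGTA, MnCl2 3 mM. After 60 min at room temperature, EDTA stop and Eu-anti-phospho antibody TR-FRET (665/615 nm) gave IC50 from sigmoidal variable-slope fits.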

The test system of another test is PC3 cells. Nature of the test: XTT assay for cell viability, PC3 cells. The test is classed as cell-based. Conditions: Homo sapiens, PC-3; PC3 cell proliferation, 96 hours. On the procedure:
Using a commercial kit from Sigma Aldrich (Catalog #X34251) and following its protocol, PC3 cells in the log phase of growth were employed and seeded at an optimal density of 1000 cell/well on to 96 well plates and incubated for 24 hours followed by the addition of compounds of formula (I) in serial dilutions. Compound dilutions were made in DMSO. The cells were incubated with the compounds of formula (I) for 96 hours and XTT tetrazolium dye (Sigma, USA) was subsequently added and incubated at 37° C. After the color formation, absorbance was measured at 465 nm in a Spectramax® Gemini spectrophotometer. EC50 values were calculated using a sigmoidal dose response curve fit in GraphPad Prism® v5 software. The tested compounds of formula (I) which caused inhibition of PC3 cell proliferation as determined by this assay protocol are shown in Table 2.
Background: Tetrazolium dyes change colour on reduction, which living cells bring about.

T1 sequence (P42336 whole entry, species assumed): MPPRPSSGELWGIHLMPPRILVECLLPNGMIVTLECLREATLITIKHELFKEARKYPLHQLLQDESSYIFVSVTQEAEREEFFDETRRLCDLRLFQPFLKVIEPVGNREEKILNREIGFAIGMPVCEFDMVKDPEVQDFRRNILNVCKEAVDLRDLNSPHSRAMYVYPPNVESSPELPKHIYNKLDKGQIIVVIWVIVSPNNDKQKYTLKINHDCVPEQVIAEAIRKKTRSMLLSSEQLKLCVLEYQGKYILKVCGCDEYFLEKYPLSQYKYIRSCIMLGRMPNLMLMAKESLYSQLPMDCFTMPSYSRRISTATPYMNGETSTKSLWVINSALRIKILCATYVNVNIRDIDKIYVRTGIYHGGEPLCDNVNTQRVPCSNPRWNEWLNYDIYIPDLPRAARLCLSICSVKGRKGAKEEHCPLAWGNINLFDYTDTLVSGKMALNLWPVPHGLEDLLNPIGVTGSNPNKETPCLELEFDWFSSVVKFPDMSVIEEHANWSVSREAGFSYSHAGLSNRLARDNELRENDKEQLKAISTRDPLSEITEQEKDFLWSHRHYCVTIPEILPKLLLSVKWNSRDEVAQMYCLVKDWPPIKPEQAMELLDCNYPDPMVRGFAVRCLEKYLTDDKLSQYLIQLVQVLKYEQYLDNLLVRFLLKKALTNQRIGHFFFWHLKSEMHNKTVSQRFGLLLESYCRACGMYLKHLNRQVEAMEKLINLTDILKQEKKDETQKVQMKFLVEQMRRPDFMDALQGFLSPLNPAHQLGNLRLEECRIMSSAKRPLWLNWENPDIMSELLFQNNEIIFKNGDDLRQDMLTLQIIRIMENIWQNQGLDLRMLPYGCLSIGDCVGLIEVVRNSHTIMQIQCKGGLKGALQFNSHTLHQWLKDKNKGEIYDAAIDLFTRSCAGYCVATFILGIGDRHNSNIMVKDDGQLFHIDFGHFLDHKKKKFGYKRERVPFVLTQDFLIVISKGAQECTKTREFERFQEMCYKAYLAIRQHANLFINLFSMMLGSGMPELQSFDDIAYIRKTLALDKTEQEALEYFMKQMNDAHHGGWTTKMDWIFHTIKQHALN
T1 sequence (P27986 whole entry partner, species assumed): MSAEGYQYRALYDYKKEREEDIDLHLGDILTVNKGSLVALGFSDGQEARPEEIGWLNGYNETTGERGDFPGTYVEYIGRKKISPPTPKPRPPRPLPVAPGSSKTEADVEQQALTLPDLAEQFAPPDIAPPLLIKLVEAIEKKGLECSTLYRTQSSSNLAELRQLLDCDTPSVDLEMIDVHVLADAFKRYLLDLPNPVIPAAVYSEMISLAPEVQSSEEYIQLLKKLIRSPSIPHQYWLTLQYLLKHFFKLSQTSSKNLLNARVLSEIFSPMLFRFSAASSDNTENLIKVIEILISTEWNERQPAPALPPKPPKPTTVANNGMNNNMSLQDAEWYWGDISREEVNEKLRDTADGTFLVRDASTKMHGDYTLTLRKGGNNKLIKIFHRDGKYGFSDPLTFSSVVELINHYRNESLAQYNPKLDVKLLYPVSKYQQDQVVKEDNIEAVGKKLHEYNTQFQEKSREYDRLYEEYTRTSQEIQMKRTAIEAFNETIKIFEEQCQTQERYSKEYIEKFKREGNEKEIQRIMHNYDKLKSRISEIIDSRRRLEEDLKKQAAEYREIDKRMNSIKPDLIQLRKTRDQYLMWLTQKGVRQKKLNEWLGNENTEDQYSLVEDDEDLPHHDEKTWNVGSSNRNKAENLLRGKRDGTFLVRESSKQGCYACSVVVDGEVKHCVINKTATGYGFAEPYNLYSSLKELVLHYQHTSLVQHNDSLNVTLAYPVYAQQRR

Broadly, the IC50 is the concentration that gives 50% inhibition. For `CN(C)CCNC(=O)c1cccc(-c2cnc3c(N4CCOCC4)nc(-c4cnc(N)nc4)nc3c2)c1` [Example 102, 3-(2-(2-aminopyrimidin-5-yl)-4-morpholinopyrido[3,2-d]-pyrimidin-7-yl)-N-(2-(dimethylamino)ethyl)-benzamide], the values for the IC50 against PI3Kα (wild-type), against mTOR kinase and in the test with PC3 cells were under 50 nM, 50 to 200 nM and 100 to 500 nM, respectively.
In the case of `Nc1ncc(-c2nc(N3CCOCC3)c3ncc(-c4cccc(N5CCNCC5)c4)cc3n2)cn1` [Example 106, 5-(4-morpholino-7-(3-(piperazin-1-yl)-phenyl)pyrido[3,2-d]-pyrimidin-2-yl)pyrimidin-2-amine], the concentration for half-maximal inhibition (IC50) against PI3Kα (wild-type) was under 50 nM; against mTOR kinase it was 50 to 200 nM; with PC3 cells, 501 to 5000 nM.
As for `CC(C)(O)C(=O)N1CCN(c2cccc(-c3cnc4c(N5CCOCC5)nc(-c5cnc(N)nc5)nc4c3)c2)CC1` [Example 108, 1-(4-(3-(2-(2-amino-pyrimidin-5-yl)-4-morpholinopyrido[3,2-d]pyrimidin-7-yl)-phenyl)piperazin-1-yl)-2-hydroxy-2-methylpropan-1-one], the values for the IC50 against PI3Kα (wild-type), at mTOR kinase and with PC3 cells were under 50 nM, under 50 nM and 100 to 500 nM, respectively.
Turning to `Nc1ncc(-c2nc(N3CCOCC3)c3ncc(-c4ccc5c(c4)NC(=O)CO5)cc3n2)cn1` [Example 111, 6-(2-(2-aminopyrimidin-5-yl)-4-morpholinopyrido[3,2-d]pyrimidin-7-yl)-2H-benzo[b][1,4]oxazin-3(4H)-one], the IC50 against PI3Kα (wild-type) is under 50 nM; at mTOR kinase, 50 to 200 nM; in the test with PC3 cells, 100 to 500 nM.
The matching figures for `Nc1ncc(-c2nc(N3CCOCC3)c3ncc(-c4cccc(N5CCN(CCO)CC5)c4)cc3n2)cn1` [Example 113, 2-(4-(3-(2-(2-amino-pyrimidin-5-yl)-4-morpholinopyrido[3,2-d]pyrimidin-7-yl)-phenyl)piperazin-1-yl)-ethanol]: under 50 nM, under 50 nM and 501 to 5000 nM.
Take `CC(=O)Nc1cc(-c2cnc3c(N4CCOCC4)nc(-c4cnc(N)nc4)nc3c2)ccc1N1CCN(C)CC1` [Example 114, N-(5-(2-(2-amino-pyrimidin-5-yl)-4-morpholinopyrido[3,2-d]pyrimidin-7-yl)-2-(4-methylpiperazin-1-yl)-phenyl)acetamide]: the IC50 on PI3Kα (wild-type) was under 50 nM; against mTOR kinase, under 50 nM; in the test on PC3 cells, 100 to 500 nM.
Consider `Nc1ncc(-c2nc(N3CCOCC3)c3ncc(-c4cccc(NC(=O)C5CC5)c4F)cc3n2)cn1` [Example 115, N-(3-(2-(2-amino-pyrimidin-5-yl)-4-morpholinopyrido[3,2-d]pyrimidin-7-yl)-2-fluorophenyl)-cyclopropane-carboxamide], for which the IC50 at PI3Kα (wild-type) was under 50 nM; at mTOR kinase it was under 50 nM; with PC3 cells it was 100 to 500 nM.
`Nc1ncc(-c2nc(N3CCOCC3)c3ncc(-c4cccc(C(=O)N5CCN(CCO)CC5)c4)cc3n2)cn1` [Example 116, (3-(2-(2-aminopyrimidin-5-yl)-4-morpholinopyrido[3,2-d]-pyrimidin-7-yl)phenyl)(4-(2-hydroxyethyl)piperazin-1-yl)methanone]: the IC50 at PI3Kα (wild-type) was under 50 nM; at mTOR kinase, 201 to 10000 nM; with PC3 cells it was 501 to 5000 nM.
Turning to `CN1CCN(c2ccc(-c3cnc4c(N5CCOCC5)nc(-c5cnc(N)nc5)nc4c3)cc2NC(=O)C2CC2)CC1` [Example 117, N-(5-(2-(2-amino-pyrimidin-5-yl)-4-morpholinopyrido[3,2-d]pyrimidin-7-yl)-2-(4-methylpiperazin-1-yl)-phenyl)cyclopropane-carboxamide], the IC50 against PI3Kα (wild-type) was under 50 nM; against mTOR kinase, under 50 nM; with PC3 cells, 100 to 500 nM.
Consider `CC(=O)Nc1ccc(F)c(-c2cnc3c(N4CCOCC4)nc(-c4cnc(N)nc4)nc3c2)c1F` [Example 123, N-(3-(2-(2-amino-pyrimidin-5-yl)-4-morpholinopyrido[3,2-d]pyrimidin-7-yl)-2,4-difluorophenyl)acetamide], for which the IC50 against PI3Kα (wild-type) is under 50 nM; against mTOR kinase, 50 to 200 nM; in the test with PC3 cells it was 100 to 500 nM.
